Results on one molecule are retold here after patent publication US11230711B2, “Inhibition of LET7I as a means to enhance the protective effect of progesterone against stroke” (UNIVERSITY OF NORTH TEXAS HEALTH SCIENCE CENTER, priority 2017, dated 2022).

The subject of one assay is C57BL/6J mice. The experiment in a line: Wire suspension (wire hanging) test of grip strength / motor function after MCAo. The format is in vivo, mouse. The conditions noted are these: Example 2, FIG. 13. How it is done:
Animals will be trained 2 days before MCAo procedure and will be tested on day 3, 7, and 14 post stroke. Animals will be allow to suspend their bodies on a single wire stretched between 2 posts 50 cm above the ground. Between the posts, a soft pillow will be placed to avoid injury in case of a fall. Training will be achieved simply with several rounds of habituation and trials. In the actual testing phase, mice will be tested 3 times and average performance is recorded as final values.
All mice were first ovariectomized to deplete endogenous ovarian hormone levels. Two weeks after ovariectomy (OVX), P4 pellets were subcutaneously implanted into these animals to replenish their progesterone levels. In parallel, different groups received cholesterol pellet implantations to serve as vehicle control. One week after pellet implantation, stroke was induced in these mice using middle cerebral artery occlusion (MCAo) procedure. In parallel, different groups received sham operation (non-stroke). […]
wire suspension test: In ordered to assess motor function recovery with different treatments, wire suspension test, a test of grip strength and endurance, was used, as described elsewhere (58). […] The latency for animals to fall off the wire was recorded. […] Performances of these mice was evaluated at day 3, 7 and 14 post stroke.

The test system of another assay is synaptophysin (SYP). The experiment in a line: Synaptophysin (SYP) protein and puncta in the penumbra after MCAo (immunofluorescence, Western blot). The class given is in vivo, mouse. The conditions noted are these: MCAo mice. The text has this:
FIGS. 14A-14D: Inhibition of let-7i enhances progesterone (P4)'s effect on the expression of synaptophysin in the penumbra. (FIG. 14A) Representative confocal images of penumbra region staining for synaptophysin (SYP, red) and DAPI (blue). (60×, Scale bars=30 μm). (FIG. 14B) Quantification of average relative SYP puncta presents in each field (n=3 per group). n.s: not significant and ***P<0.001 compared to sham, ### P<0.001 and ##P<0.01 compared to P4+scrambled. (FIG. 14C) Representative immunoblots probed for SYP protein. (FIG. 14D) Quantification graph of Syp signal, expressed as a ratio to Gapdh (n=4-5 per group). n.s: not significant, ***P<0.001 and **P<0.01 compared to sham, ## P<0.01 and #P<0.05 compared to P4+scrambled.
Primary cortical astrocytes and mouse brains were lysed with RIPA lysis buffer containing protease and phosphatase inhibitors, as previously described (44). […] Total protein concentrations were determined using the Bio-Rad DC protein assay kit (Bio-Rad Laboratories). […]
Mouse brains were fixed in 4% PFA overnight at 4° C. and subsequently cryoprotected in 30% sucrose solution. […] After immunostaining, sections were mounted onto microscope slides with Vectashield mounting medium (Vector Laboratories) and observed under a confocal fluorescence microscope (FV1200, Olympus) with a […] objective. […]

On to `CC(=O)[C@H]1CC[C@H]2[C@@H]3CCC4=CC(=O)CC[C@]4(C)[C@H]3CC[C@]12C` [P4, progesterone], for which the “motor function recovery (wire suspension test)” value in the assay on C57BL/6J mice (day 7) and in the assay with C57BL/6J mice (day 14) was “partial recovery” throughout. For the same molecule, the “SYP total protein expression in the penumbra” value in the assay on synaptophysin (SYP) (day 7 and day 14, FIG. 14D) is “delayed, but sustained, restoration”. In the assay on synaptophysin (SYP) (day 14, FIG. 14B), the “number of SYP puncta in the penumbra” value was “positive effect”.
